For assay [1], the target named is T1, Adenosine receptor A2a (Homo sapiens, UniProt P29274). Briefly: Binding affinity to human adenosine A2A receptor expressed in human HEK293 cell membrane at 10 uM by radioligand inhibition assay. The assay is classed as cell membranes.
The target in assay [2] is T2, Adenosine receptor A1 (Mus musculus, UniProt Q60612).
T2 sequence (Q60612 whole entry): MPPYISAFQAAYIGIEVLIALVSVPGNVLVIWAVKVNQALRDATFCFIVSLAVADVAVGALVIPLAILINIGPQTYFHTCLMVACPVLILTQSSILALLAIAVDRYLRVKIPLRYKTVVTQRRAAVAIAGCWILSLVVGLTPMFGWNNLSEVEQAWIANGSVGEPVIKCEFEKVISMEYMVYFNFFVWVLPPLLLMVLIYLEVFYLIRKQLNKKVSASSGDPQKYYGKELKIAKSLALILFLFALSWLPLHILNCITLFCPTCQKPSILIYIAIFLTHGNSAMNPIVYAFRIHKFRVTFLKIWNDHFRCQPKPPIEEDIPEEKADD
The experiment in a line: Displacement of [3H] N6-R-phenylisopropyladenosine from mouse A1A receptor stably expressed in HEK293 cell membrane by radioligand inhibition assay. The assay is classed as cell membranes. (In general: Displacement assays read how much labelled ligand stays bound in the presence of the test substance.)

Assay [3] has as its target T3, Adenosine receptor A3 (Mus musculus, UniProt Q61618).
T3 sequence (Q61618 whole entry): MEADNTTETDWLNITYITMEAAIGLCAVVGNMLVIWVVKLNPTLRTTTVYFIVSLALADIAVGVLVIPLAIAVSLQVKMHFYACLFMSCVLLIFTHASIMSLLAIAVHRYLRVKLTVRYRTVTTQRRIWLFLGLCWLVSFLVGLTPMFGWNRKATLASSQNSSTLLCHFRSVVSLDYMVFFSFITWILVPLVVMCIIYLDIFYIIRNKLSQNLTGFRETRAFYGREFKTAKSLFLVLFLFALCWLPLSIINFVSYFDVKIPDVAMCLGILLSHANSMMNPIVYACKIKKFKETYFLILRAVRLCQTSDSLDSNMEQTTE
Briefly: Displacement of [125I] N6-4-amino-3-iodobenzyl adenosine 5-N-methyluronamide from mouse A3A receptor stably expressed in HEK293 cell membrane by radioligand inhibition assay. The assay is classed as cell membranes.

The target of assay [4] is T4, Adenosine receptor A1 (Homo sapiens) (UniProt P30542).
T4 sequence (whole entry): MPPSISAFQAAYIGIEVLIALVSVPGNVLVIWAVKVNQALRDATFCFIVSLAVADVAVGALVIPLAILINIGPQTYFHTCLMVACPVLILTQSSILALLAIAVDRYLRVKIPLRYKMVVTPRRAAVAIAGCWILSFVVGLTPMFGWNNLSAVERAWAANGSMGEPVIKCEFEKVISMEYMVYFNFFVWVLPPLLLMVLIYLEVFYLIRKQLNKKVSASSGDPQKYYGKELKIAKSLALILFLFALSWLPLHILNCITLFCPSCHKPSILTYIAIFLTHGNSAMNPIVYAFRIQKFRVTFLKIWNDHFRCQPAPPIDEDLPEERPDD
Briefly: Binding affinity to human adenosine A1A receptor expressed in human HEK293 cell membrane at 10 uM by radioligand inhibition assay. The assay is classed as cell membranes.

The target in assay [5] is T5, Adenosine receptor A3 (Homo sapiens, UniProt P0DMS8).
T5 sequence (P0DMS8 whole entry): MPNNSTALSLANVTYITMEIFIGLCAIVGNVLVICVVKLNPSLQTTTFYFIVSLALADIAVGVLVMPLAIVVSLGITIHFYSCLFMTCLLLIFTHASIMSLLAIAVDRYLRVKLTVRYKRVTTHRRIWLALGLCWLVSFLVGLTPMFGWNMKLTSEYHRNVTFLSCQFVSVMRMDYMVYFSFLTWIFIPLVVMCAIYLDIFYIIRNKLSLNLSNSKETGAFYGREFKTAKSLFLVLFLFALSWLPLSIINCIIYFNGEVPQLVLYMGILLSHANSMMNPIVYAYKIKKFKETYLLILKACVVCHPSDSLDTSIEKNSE
The experiment in a line: Displacement of [125I] N6-(4-amino-3-iodobenzyl)adenosine-5'-N-methyluronamide from human A3A receptor stably expressed in HEK293 cell membrane by radioligand inhibition assay. The assay is classed as cell membranes.

In assay [6] the target is T6, Adenosine receptor A1 (Mus musculus) (UniProt Q60612).
T6 sequence (whole entry): T2 sequence (Q60612 whole entry)
Briefly: Binding affinity to mouse adenosine A1A receptor expressed in human HEK293 cell membrane by radioligand inhibition assay. The assay is classed as cell membranes. Further details: concentration or dose not given beside the values. The note with it: concentration not given here.

For assay [7], the target named is T1, Adenosine receptor A2a. Briefly: Displacement of [3H]-2-p-2-(carboxyethyl)phenyl-ethylamino-5'-N-ethylcarboxamidoadenosine from human A2A receptor stably expressed in HEK293 cell membrane by radioligand inhibition assay. The assay is classed as cell membranes.
The target in assay [8] is T5, Adenosine receptor A3. Briefly: Agonist activity at human adenosine A3A receptor stably expressed in HEK293 cells assessed as beta arrestin 2 recruitment potency by luciferase based NanoBiT assay. The assay is classed as functional, cell-based.
The target in assay [9] is T5, Adenosine receptor A3. The experiment in a line: Agonist activity at human adenosine A3A receptor stably expressed in HEK293 cells assessed as mini G-alpha recruitment potency by luciferase based NanoBiT assay. The assay is classed as functional, cell-based.

One may read the inhibition as the percentage by which the read-out fell short of the control. For orientation: Ki means a dissociation constant, usually derived from enzyme kinetics or from competition with a known ligand. For orientation: EC50 means the concentration at which the effect is half-maximal.

Each structure is given as a SMILES string.

T1 sequence (P29274 whole entry): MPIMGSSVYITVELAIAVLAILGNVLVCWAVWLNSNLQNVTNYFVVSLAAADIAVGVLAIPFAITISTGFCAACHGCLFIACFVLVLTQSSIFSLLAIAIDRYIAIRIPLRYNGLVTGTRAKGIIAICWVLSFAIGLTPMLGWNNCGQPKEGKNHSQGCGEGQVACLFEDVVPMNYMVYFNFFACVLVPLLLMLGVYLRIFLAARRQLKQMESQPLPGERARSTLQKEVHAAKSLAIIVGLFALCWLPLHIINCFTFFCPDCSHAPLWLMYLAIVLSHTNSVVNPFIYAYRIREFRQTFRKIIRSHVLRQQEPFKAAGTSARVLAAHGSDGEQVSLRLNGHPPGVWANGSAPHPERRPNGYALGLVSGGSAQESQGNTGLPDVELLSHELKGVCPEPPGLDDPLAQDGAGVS

For the compound `CNC(=O)[C@@]12C[C@@H]1[C@@H](n1cnc3c(NCCc4ccc(O)c(OC)c4)nc(C#Cc4ccccc4)nc31)[C@H](O)[C@@H]2O`, the inhibition is 28% in assay [1] and 2% in assay [4]. Also, the Ki in [2] was determined as 5130 nM; in [3], 1.54 nM; in assay [5], 0.563 nM.
In the case of `CNC(=O)[C@@]12C[C@@H]1[C@@H](n1cnc3c(NCCc4ccc(O)c(O)c4)nc(C#Cc4ccc(Cl)s4)nc31)[C@H](O)[C@@H]2O`, the inhibition stood at 8% in [1] and 25% in [4]. Also, the Ki in [3] turned out to be 0.91 nM; in assay [5], 20.8 nM.
On to `CNC(=O)[C@@]12C[C@@H]1[C@@H](n1cnc3c(NCCc4ccc(O)c(OC)c4)nc(I)nc31)[C@H](O)[C@@H]2O`, for which the inhibition in assay [1] was 43%; in [4], 46%. Further, the Ki in [2] was found to be 476 nM; in assay [3], 2.25 nM; in assay [5], 6.34 nM.
Regarding `CNC(=O)[C@@]12C[C@@H]1[C@@H](n1cnc3c(NCCc4ccccc4)nc(C#Cc4ccccc4Cl)nc31)[C@H](O)[C@@H]2O`, the inhibition in assay [1] came to 30%; in assay [4], 27%. In addition, in assay [5], the inhibitory constant (Ki) worked out at 0.58 nM.
In the case of `CCOC(=O)[C@@]12C[C@@H]1[C@@H](n1cnc3c(NCCc4ccc(O)c(OC)c4)nc(C#Cc4ccc(Cl)s4)nc31)[C@H](O)[C@@H]2O`, the inhibition in assay [1] came out at 33%; in assay [6] it was 57%; in assay [4], 0%. This compound yielded an inhibition constant (Ki) in assay [5] of 37.4 nM.
Turning to `CNC(=O)[C@@]12C[C@@H]1[C@@H](n1cnc3c(NCCc4ccc(OC)c(O)c4)nc(C#Cc4ccc(Cl)s4)nc31)[C@H](O)[C@@H]2O`, the inhibition in [1] turned out to be 34%; in assay [6] it was 44%; in assay [4] it was 0%. The Ki in [3] stood at 1.7 nM; in [5], 8.31 nM.
As for `CNC(=O)[C@@]12C[C@@H]1[C@@H](n1cnc3c(NCCc4ccc(OC)c(O)c4)nc(OCC4CC4)nc31)[C@H](O)[C@@H]2O`, the results for the Ki in assay [2], in assay [3] and in [7] were 151 nM, 11.9 nM and 4720 nM, respectively.
In the case of `CCOC(=O)[C@@]12C[C@@H]1[C@@H](n1cnc3c(NCCc4ccc(OC)c(O)c4)nc(C#Cc4ccc(Cl)s4)nc31)[C@H](O)[C@@H]2O`, the inhibition was determined as 25% in [1], 56% in [6] and 7% in assay [4]. In addition, the Ki stood at 104 nM in assay [3] and 32.8 nM in assay [5].
Regarding `CNC(=O)[C@@]12C[C@@H]1[C@@H](n1cnc3c(NCc4ccc(O)c(OC)c4)nc(C#Cc4ccc(Cl)s4)nc31)[C@H](O)[C@@H]2O`, the Ki in assay [2] was 2330 nM; in assay [7] it was 8210 nM.
Consider `CNC(=O)[C@@]12C[C@@H]1[C@@H](n1cnc3c(NCCc4ccc(O)c(O)c4)nc(C#Cc4ccc(Br)s4)nc31)[C@H](O)[C@@H]2O`, for which the figures for the inhibition in assay [1] and in assay [4] were 6% and 31%, respectively. Also, the Ki in assay [3] was 2.5 nM; in assay [5] it was 62.7 nM.
Turning to `CNC(=O)[C@@]12C[C@@H]1[C@@H](n1cnc3c(NCCc4ccc(O)c(OC)c4)nc(C#Cc4ccco4)nc31)[C@H](O)[C@@H]2O`, the inhibition in assay [1] was 32%; in assay [6], 40%; in assay [4], 9%. Also, the Ki was determined as 1.56 nM in [3] and 3.25 nM in [5].
In the case of `CNC(=O)[C@@]12C[C@@H]1[C@@H](n1cnc3c(NCCc4ccc(O)c(OC)c4)nc(C#Cc4cccs4)nc31)[C@H](O)[C@@H]2O`, the inhibition in assay [1] amounted to 37%; in assay [6], 47%; in assay [4], 12%. Further, the inhibition constant (Ki) was 1.26 nM in [3] and 3.33 nM in assay [5].
As for `COc1cc(CCNc2nc(OCC(C)C)nc3c2ncn3[C@H]2[C@H](O)[C@H](O)[C@@H]3C[C@@H]32)ccc1O`, the Ki in assay [7] was 5050 nM; in assay [5], 13.1 nM. Besides, in assay [4], the inhibition was found to be 4%.
In assay [1], `CCOC(=O)[C@@]12C[C@@H]1[C@@H](n1cnc3c(NCCc4ccccc4)nc(C#Cc4ccc(Cl)s4)nc31)[C@H](O)[C@@H]2O` showed an inhibition of 24%. The compound further gave a Ki in [5] of 60.8 nM.
As to `CNC(=O)[C@@]12C[C@@H]1[C@@H](n1cnc3c(NCCc4ccc(OC)c(OC)c4)nc(I)nc31)[C@H](O)[C@@H]2O`, the figures for the Ki in assay [2] and in [3] were 842 nM and 5.31 nM, respectively.
Take `CNC(=O)[C@@]12C[C@@H]1[C@@H](n1cnc3c(NCCc4ccc(OC)c(O)c4)nc(OCCC(C)C)nc31)[C@H](O)[C@@H]2O`: the Ki in assay [2] is 480 nM; in assay [3], 5.03 nM; in [7], 4860 nM.
In assay [3], `CNC(=O)[C@@]12C[C@@H]1[C@@H](n1cnc3c(NCCc4ccc(OC)c(O)c4)nc(OCCCC4CCCCC4)nc31)[C@H](O)[C@@H]2O` displayed a Ki of 6.42 nM.
As for `CNC(=O)[C@@]12C[C@@H]1[C@@H](n1cnc3c(NCCc4ccc(O)c(OC)c4)nc(C#Cc4ccc(Cl)s4)nc31)[C@H](O)[C@@H]2O`, the inhibition in [1] stood at 31%. Besides, the results for the Ki in assay [2], in assay [3] and in [5] were 3.75 nM, 3.16 nM and 5.29 nM, respectively. In addition, the EC50 in assay [8] came to 39.7 nM; in assay [9], 43.9 nM.
With `O[C@@H]1[C@H](O)[C@@H]2C[C@@H]2[C@H]1n1cnc2c(NCCc3ccccc3)nc(I)nc21`, the values for the Ki in assay [7] and in assay [5] were 5860 nM and 23.1 nM, respectively.
Take `CNC(=O)[C@@]12C[C@@H]1[C@@H](n1cnc3c(NCCc4ccc(O)c(OC)c4)nc(C#Cc4ccsc4)nc31)[C@H](O)[C@@H]2O`: the inhibition in assay [1] came to 35%; in assay [6], 61%; in assay [4], 30%. Besides, the Ki in [3] was 2.08 nM; in assay [5], 3.34 nM.
`CNC(=O)[C@@]12C[C@@H]1[C@@H](n1cnc3c(NCCc4ccccc4)nc(C#Cc4ccc(Cl)s4)nc31)[C@H](O)[C@@H]2O`: the inhibition in [1] was 49%; in assay [6], 42%; in [4] it was 4%. In addition, the Ki in [3] stood at 1.91 nM; in assay [5], 3.37 nM. Moreover, the EC50 in [8] is 64 nM; in assay [9], 64.9 nM.
Take `CNC(=O)[C@@]12C[C@@H]1[C@@H](n1cnc3c(NCCc4ccc(O)c(OC)c4)nc(C#Cc4ccc(F)c(F)c4)nc31)[C@H](O)[C@@H]2O`: the results for the inhibition in assay [1] and in assay [4] were 9% and 11%, respectively. Besides, the Ki was determined as 5800 nM in assay [2], 3.31 nM in [3] and 4.98 nM in [5].
Regarding `CNC(=O)[C@@]12C[C@@H]1[C@@H](n1cnc3c(NCCc4ccc(OC)c(OC)c4)nc(C#Cc4ccc(Br)s4)nc31)[C@H](O)[C@@H]2O`, the inhibition in [1] came to 36%. The same compound showed a Ki in assay [5] of 8.01 nM.
As to `CNC(=O)[C@@]12C[C@@H]1[C@@H](n1cnc3c(NCCc4ccc(O)c(OC)c4)nc(C#Cc4ccc(F)s4)nc31)[C@H](O)[C@@H]2O`, the inhibition worked out at 32% in assay [1], 48% in assay [6] and 2% in [4]. For the same compound, the Ki was 1.46 nM in assay [3] and 3.31 nM in assay [5]. Besides, the EC50 in assay [8] turned out to be 24.9 nM; in [9], 23.7 nM.
Compound `CNC(=O)[C@@]12C[C@@H]1[C@@H](n1cnc3c(NCCc4ccc(O)c(OC)c4)nc(C#Cc4ccc(Br)s4)nc31)[C@H](O)[C@@H]2O` came in with an inhibition in assay [1] of 43%. In addition, the Ki in assay [3] stood at 1.32 nM; in assay [5], 3.41 nM.

For the origin of these results see ChEMBL document CHEMBL5154659, “A3 adenosine receptor agonists containing dopamine moieties for enhanced interspecies affinity” (Eur J Med Chem, 2022).
